ChEMBL document CHEMBL1149411, “Application of fragment screening and fragment linking to the discovery of novel thrombin inhibitors” (J Med Chem, 2006)
pIC50: −log10 of the molar value. One block for each compound: values may come before it. The source made the active and inactive calls. The calls are words filed in the database; no cut-off is given here.

Experiments:
[1] = biological target: Trypsin (Homo sapiens, UniProt P07477+P07478+P35030); assay: Inhibitory activity against trypsin; type: protein assay
[2] = biological target: T1, Prothrombin (Homo sapiens, UniProt P00734); assay: Inhibitory activity against Thrombin
[3] = biological target: T1, Prothrombin; assay: Inhibition of Thrombin at 300 uM

IC50 [1]: > 100000 nM
Compound: COc1cc(C)c(S(=O)(=O)NC[C@@H](O)[C@H](Cc2ccccc2)NCc2cccc(Cl)c2)c(C)c1C

pIC50 [2]: 8.85
Compound: COc1cc(C)c(S(=O)(=O)NC[C@@H](O)[C@H](Cc2ccccc2)NCc2cc(Cl)ccc2-n2cnnn2)c(C)c1C

Compound: NCc1cccc(Cl)c1
inhibition [3]: inactive
